Earlier results in patent publication US20200289431A1 (priority 2019, published 2020).

Columns and labels:
[1] = in vivo
cannabinoid CB2 receptor = cannabinoid CB2 receptor (Homo sapiens, UniProt P34972)
Sequence of cannabinoid CB2 receptor (P34972 whole entry): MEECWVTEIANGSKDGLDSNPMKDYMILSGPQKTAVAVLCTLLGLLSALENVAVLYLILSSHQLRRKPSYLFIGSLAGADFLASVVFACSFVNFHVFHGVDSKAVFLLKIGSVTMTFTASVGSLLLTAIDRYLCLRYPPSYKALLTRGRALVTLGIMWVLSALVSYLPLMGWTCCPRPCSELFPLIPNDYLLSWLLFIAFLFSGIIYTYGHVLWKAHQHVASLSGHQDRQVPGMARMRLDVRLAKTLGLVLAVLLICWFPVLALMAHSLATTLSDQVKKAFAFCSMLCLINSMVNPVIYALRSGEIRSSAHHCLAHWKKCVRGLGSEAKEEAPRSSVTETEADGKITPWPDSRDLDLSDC

Structure (SMILES): C=C(C)[C@@H]1CCC(C)=C[C@H]1c1c(O)cc(CCCCC)cc1O [Cannabidiol]
- elimination half-life [1]: 18 to 32 h
- affinity for the cannabinoid CB2 receptor (cannabinoid CB2 receptor): very low affinity
